According to ChEMBL document CHEMBL3045315, “Effect of ring A and ring B substitution on the cytotoxic potential of pyrazole tethered chalcones” (Med Chem Res, 2012):

Tests used:
Format in all cases: functional, cell-based
PC-3 = assay: Cytotoxicity against Homo sapiens (human) PC3 cells after 48 hr by SRB assay; settings: PC-3, 48 h
IMR-32 = assay: Cytotoxicity against Homo sapiens (human) IMR32 cells after 48 hr by SRB assay; settings: IMR-32, 48 h
HEp-2 = assay: Cytotoxicity against Homo sapiens (human) Hep2 cells after 48 hr by SRB assay; settings: HEp-2, 48 h
OVCAR = assay: Cytotoxicity against Homo sapiens (human) OVCAR cells after 48 hr by SRB assay

SMILES | IC50 (PC-3) [µM] | IC50 (IMR-32) [µM] | IC50 (HEp-2) [µM] | IC50 (OVCAR) [µM]
COc1ccc(C2CC(c3ccc(Br)cc3)=NN2C(C)=O)cc1 (stereo not drawn) | 17.8 | 15.7 | 17.9 | 16.9
CC(=O)N1N=C(c2ccc(Br)cc2)CC1c1ccccc1 (stereo not drawn) | 29.9 | 22.4 | 27.8 | 21.2
COc1cc(C2CC(c3ccc(Br)cc3)=NN2C(C)=O)cc(OC)c1OC (stereo not drawn) | 3.45 | 3.13 | 4.53 | 4.78
CC(=O)N1N=C(c2ccco2)CC1c1ccc(C)cc1 (stereo not drawn) | 21.2 | 29.1 | 19.3 | 11.2
CC(=O)N1N=C(c2ccco2)CC1c1ccc(Br)cc1 (stereo not drawn) | 42.1 | 47.8 | 51.2 | 18.9
CC(=O)N1N=C(c2ccccc2)CC1c1ccc2c(c1)OCO2 (stereo not drawn) | 8.89 | 7.64 | 6.65 | 8.73
CC(=O)N1N=C(c2ccccc2)CC1c1cccc(Cl)c1Cl (stereo not drawn) | 31.6 | 42.9 | 24 | 36.8
COc1cc(C2CC(c3ccccc3)=NN2C(C)=O)ccc1O (stereo not drawn) | 7.56 | 5.78 | 4.99 | 6.63
COc1cc(C2CC(c3ccccc3)=NN2C(C)=O)cc(OC)c1OC (stereo not drawn) | 3.39 | 3.38 | 3.56 | 4.64
COc1ccc(C2CC(c3ccc(Br)cc3)=NN2C(C)=O)cc1OC (stereo not drawn) | 7.76 | 5.54 | 8.87 | 5.59
CC(=O)N1N=C(c2ccc(Br)cc2)CC1c1cccc(Cl)c1Cl (stereo not drawn) | 38.8 | 45.7 | 50 | 39.8
CC(=O)N1N=C(c2ccc(Br)cc2)CC1c1ccc2c(c1)OCO2 (stereo not drawn) | 11 | 9.89 | 8.72 | 11.2
CC(=O)N1N=C(c2cccc([N+](=O)[O-])c2)CC1c1ccccc1 (stereo not drawn) | 8.71 | 7.89 | 8.93 | 9.92
COc1ccc(C2CC(c3cccc([N+](=O)[O-])c3)=NN2C(C)=O)cc1 (stereo not drawn) | 7.83 | 6.65 | 8.21 | 8.76
COc1ccc(C2CC(c3cccc([N+](=O)[O-])c3)=NN2C(C)=O)cc1OC (stereo not drawn) | 6.78 | 6.22 | 7.81 | 8.11
CC(=O)N1N=C(c2cccc([N+](=O)[O-])c2)CC1c1cccc(Cl)c1Cl (stereo not drawn) | 18.2 | 25.3 | 27.6 | 19.7
CC(=O)N1N=C(c2cccc([N+](=O)[O-])c2)CC1c1ccc2c(c1)OCO2 (stereo not drawn) | 8.21 | 7.89 | 7.65 | 9.87
CC(=O)N1N=C(c2cccc3ccccc23)CC1c1ccccc1 (stereo not drawn) | 8.46 | 7.76 | 11.2 | 7.82
CC(=O)N1N=C(c2cccc3ccccc23)CC1c1cccc([N+](=O)[O-])c1 (stereo not drawn) | 3.13 | 3.96 | 4.08 | 3.65
COc1ccc(C2CC(c3cccc4ccccc34)=NN2C(C)=O)cc1 (stereo not drawn) | 4.93 | 4.99 | 3.73 | 6.71
CC(=O)N1N=C(c2cccc3ccccc23)CC1c1cccc(Br)c1 (stereo not drawn) | 12 | 11.9 | 9.88 | 12.3

SMILES | IC50 (PC-3) [µM] | IC50 (IMR-32) [µM] | IC50 (HEp-2) [µM] | IC50 (OVCAR) [µM]
CC(=O)N1N=C(c2cccc3ccccc23)CC1c1ccccc1[N+](=O)[O-] (stereo not drawn) | 3.54 | 3.98 | 3.96 | 4.32
COc1ccc(OC)c(C2CC(c3cccc4ccccc34)=NN2C(C)=O)c1 (stereo not drawn) | 1.98 | 1.58 | 1.31 | 2.65
COc1ccc(C2CC(c3cccc4ccccc34)=NN2C(C)=O)cc1OC (stereo not drawn) | 2.01 | 1.68 | 1.03 | 2.69
COc1cc(C2CC(c3cccc4ccccc34)=NN2C(C)=O)cc(OC)c1OC (stereo not drawn) | 1.09 | 1.54 | 1.01 | 1.77
COc1cc(C2CC(c3cccc4ccccc34)=NN2C(C)=O)ccc1O (stereo not drawn) | 2.13 | 1.78 | 1.13 | 2.73
CC(=O)N1N=C(c2cccc3ccccc23)CC1c1cccc(Cl)c1Cl (stereo not drawn) | 20.1 | 22.1 | 16.8 | 19.1
CC(=O)N1N=C(c2cccc3ccccc23)CC1c1ccc2c(c1)OCO2 (stereo not drawn) | 2.09 | 1.91 | 1.07 | 3.76
CC(=O)N1N=C(c2cccc3ccccc23)CC1c1ccc2ccccc2c1 (stereo not drawn) | 0.21 | 0.27 | 0.19 | 0.25
CC(=O)N1N=C(c2ccco2)CC1c1ccccc1 (stereo not drawn) | 21.3 | 29.1 | 32.1 | 31.3
CC(=O)N1N=C(c2ccco2)CC1c1ccccc1[N+](=O)[O-] (stereo not drawn) | 19 | 27.9 | 47.9 | 28.3
CC(=O)N1N=C(c2ccco2)CC1c1cccc([N+](=O)[O-])c1 (stereo not drawn) | 20 | 28.9 | 30 | 23.4
CC(=O)N1N=C(c2ccco2)CC1c1cccc(O)c1 (stereo not drawn) | 16.5 | 11.8 | 10 | 13.2
CC(=O)N1N=C(c2ccco2)CC1c1ccc([N+](=O)[O-])cc1 (stereo not drawn) | 21.3 | 35.8 | 21.8 | 23
CC(=O)N1N=C(c2ccco2)CC1c1ccc(Cl)cc1 (stereo not drawn) | 39 | 38.9 | 57.4 | 31.3
COc1ccc(C2CC(c3ccco3)=NN2C(C)=O)cc1 (stereo not drawn) | 15.5 | 14.5 | 15.6 | 14.3
CC(=O)N1N=C(c2ccco2)CC1c1ccc(N(C)C)cc1 (stereo not drawn) | 16.7 | 16.1 | 16 | 14.6
COc1ccc(OC)c(C2CC(c3ccco3)=NN2C(C)=O)c1 (stereo not drawn) | 11.2 | 11.8 | 13.3 | 11
COc1cc(C2CC(c3ccco3)=NN2C(C)=O)cc(OC)c1OC (stereo not drawn) | 9.65 | 9.87 | 21.3 | 10.9
COc1ccc(C2CC(c3ccco3)=NN2C(C)=O)cc1OC (stereo not drawn) | 12.3 | 11.2 | 9.99 | 31.2
COc1cc(OC)c(C2CC(c3ccco3)=NN2C(C)=O)cc1OC (stereo not drawn) | 8.98 | 7.76 | 6.69 | 6.76
COc1cc(C2CC(c3ccco3)=NN2C(C)=O)ccc1O (stereo not drawn) | 12.9 | 23.3 | 10.1 | 11.3

SMILES | IC50 (PC-3) [µM] | IC50 (IMR-32) [µM] | IC50 (HEp-2) [µM] | IC50 (OVCAR) [µM]
CC(=O)N1N=C(c2ccco2)CC1c1cccc(Cl)c1Cl (stereo not drawn) | 61.2 | 62.2 | 43.2 | 81.2
CC(=O)N1N=C(c2ccco2)CC1c1ccc2c(c1)OCO2 (stereo not drawn) | 16.7 | 12.3 | 20 | 12.3
COc1ccc(C2CC(c3ccc4ccccc4c3)=NN2C(C)=O)cc1 (stereo not drawn) | 4.53 | 4.12 | 3.23 | 5.79
CC(=O)N1N=C(c2ccc3ccccc3c2)CC1c1ccc2ccccc2c1 (stereo not drawn) | 0.2 | 0.19 | 0.17 | 0.23
CC(=O)N1N=C(c2cccc3ccccc23)CC1c1ccco1 (stereo not drawn) | 18 | 8 | 17 | 13
CC(=O)N1N=C(c2cccc3ccccc23)CC1/C=C/c1ccccc1 (stereo not drawn) | 21.1 | 26.7 | 21.1 | 24
CC(=O)N1N=C(c2ccc3ccccc3c2)CC1c1ccccc1 (stereo not drawn) | 7.4 | 10 | 8.4 | 21.5
CC(=O)N1N=C(c2ccc3ccccc3c2)CC1c1cccc([N+](=O)[O-])c1 (stereo not drawn) | 2.98 | 3.28 | 3.87 | 3.39
CC(=O)N1CC(c2ccc3c(c2)OCO3)C(c2ccc3ccccc3c2)=N1 (stereo not drawn) | 1.97 | 1.56 | 1.01 | 3.45
CC(=O)N1N=C(c2ccc3ccccc3c2)CC1c1ccccc1[N+](=O)[O-] (stereo not drawn) | 3.01 | 3.36 | 3.63 | 3.48
CC(=O)N1N=C(c2ccc3ccccc3c2)CC1c1cccc(Cl)c1Cl (stereo not drawn) | 17.9 | 16.9 | 12.5 | 15.1
COc1cc(C2CC(c3ccc4ccccc4c3)=NN2C(C)=O)cc(OC)c1OC (stereo not drawn) | 0.57 | 0.67 | 0.53 | 0.64
COc1ccc(C2CC(c3ccc4ccccc4c3)=NN2C(C)=O)c(OC)c1OC (stereo not drawn) | 0.61 | 0.78 | 0.59 | 0.58
COc1ccc(OC)c(C2CC(c3ccc4ccccc4c3)=NN2C(C)=O)c1 (stereo not drawn) | 1.66 | 1.32 | 1.09 | 2.33
COc1ccc(C2CC(c3ccc4ccccc4c3)=NN2C(C)=O)cc1OC (stereo not drawn) | 1.98 | 1.59 | 1.01 | 2.45
COc1ccc(C2CC(c3ccc4ccccc4c3)=NN2C(C)=O)cc1O (stereo not drawn) | 2.04 | 1.49 | 1.02 | 2.16
CC(=O)N1N=C(c2ccc3ccccc3c2)CC1c1cccc(Br)c1 (stereo not drawn) | 10.9 | 9.87 | 8.78 | 10.8
CC(=O)N1N=C(c2ccc3ccccc3c2)CC1c1ccco1 (stereo not drawn) | 23 | 11 | 19 | 18
COc1ccc(C2CC(c3cccc4ccccc34)=NN2C(C)=O)c(OC)c1OC (stereo not drawn) | 1.22 | 1.79 | 1.29 | 1.98
COc1ccc(C2CC(c3ccccc3)=NN2C(C)=O)cc1OC (stereo not drawn) | 6.78 | 4.49 | 7.85 | 5.56
